Key:
Assay in all cases: relative viability (nuclei count vs DMSO), 5 days (fraction); higher = more cells survive
FG-4592 + Lapatinib = compound: Cc1nc(C(=O)NCC(=O)O)c(O)c2ccc(Oc3ccccc3)cc12 [FG-4592] + CS(=O)(=O)CCNCc1ccc(-c2ccc3ncnc(Nc4ccc(OCc5cccc(F)c5)c(Cl)c4)c3c2)o1 [Lapatinib] (partner 2 µM)
Summary of the method: (§1)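 The day after seeding in 1536-well plates, lung cancer cell lines were treated by pin tool with a single drug, or with a fixed anchor-drug dose together with five library-drug doses (not always all listed) in √10 steps. After 5 days, a combined fix-and-stain solution (final 0.05% Triton X-100, 1% formaldehyde, 1 ug/ml Hoechst) was added. Nuclei counted on 4× images gave relative viability as treated counts over vehicle counts, reported as the median of duplicate plates.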

FG-4592 + Decitabine = compound: Cc1nc(C(=O)NCC(=O)O)c(O)c2ccc(Oc3ccccc3)cc12 [FG-4592] + Nc1ncn([C@H]2C[C@H](O)[C@@H](CO)O2)c(=O)n1 [Decitabine] (partner 2 µM)
Summary of the method: as §1

IU1-47 + Alpelisib = compound: CC1=CC(=C(N1C2=CC=C(C=C2)Cl)C)C(=O)CN3CCCCC3 [IU1-47] + Cc1nc(NC(=O)N2CCC[C@H]2C(N)=O)sc1-c1ccnc(C(C)(C)C(F)(F)F)c1 [Alpelisib] (partner 2 µM)
Summary of the method: as §1

IU1-47 + Pemetrexed = compound: CC1=CC(=C(N1C2=CC=C(C=C2)Cl)C)C(=O)CN3CCCCC3 [IU1-47] + Nc1nc2[nH]cc(CCc3ccc(C(=O)N[C@@H](CCC(=O)O)C(=O)O)cc3)c2c(=O)[nH]1 [Pemetrexed] (partner 0.2 µM)
Summary of the method: as §1

Question: Which results are given for UMC-11?
Answer: relative viability (FG-4592 + Lapatinib; first compound 0.08 µM): 0.948; relative viability (FG-4592 + Lapatinib; first compound 0.253 µM): 0.955; relative viability (FG-4592 + Lapatinib; first compound 0.8 µM): 0.8; relative viability (FG-4592 + Lapatinib; first compound 2.53 µM): 0.936; relative viability (FG-4592 + Lapatinib; first compound 8 µM): 0.822; relative viability (FG-4592 + Decitabine; first compound 0.08 µM): 0.54; relative viability (FG-4592 + Decitabine; first compound 0.253 µM): 0.604; relative viability (FG-4592 + Decitabine; first compound 0.8 µM): 0.532; relative viability (FG-4592 + Decitabine; first compound 2.53 µM): 0.423; relative viability (FG-4592 + Decitabine; first compound 8 µM): 0.365; relative viability (IU1-47 + Alpelisib; first compound 0.08 µM): 1.09; relative viability (IU1-47 + Alpelisib; first compound 0.253 µM): 1.1; relative viability (IU1-47 + Alpelisib; first compound 0.8 µM): 1.02; relative viability (IU1-47 + Alpelisib; first compound 2.53 µM): 1.24; relative viability (IU1-47 + Alpelisib; first compound 8 µM): 0.735; relative viability (IU1-47 + Pemetrexed; first compound 0.08 µM): 0.777; relative viability (IU1-47 + Pemetrexed; first compound 0.253 µM): 0.716; relative viability (IU1-47 + Pemetrexed; first compound 0.8 µM): 0.811; relative viability (IU1-47 + Pemetrexed; first compound 2.53 µM): 0.903; relative viability (IU1-47 + Pemetrexed; first compound 8 µM): 0.796

— the supplement of paper PMC10307832
